The results in this text go back to patent US10081616B2, “Soluble epoxide hydrolase inhibitors and uses thereof” (X-Chem, Inc., priority 2014, dated 2018).

As usually defined, the IC50 is the concentration needed to halve the response being measured.

For the test, the target named is T1, sEH (Homo sapiens, UniProt P34913).
T1 construct: purchased Cayman Chemical 10011669
T1 sequence (P34913 1-555): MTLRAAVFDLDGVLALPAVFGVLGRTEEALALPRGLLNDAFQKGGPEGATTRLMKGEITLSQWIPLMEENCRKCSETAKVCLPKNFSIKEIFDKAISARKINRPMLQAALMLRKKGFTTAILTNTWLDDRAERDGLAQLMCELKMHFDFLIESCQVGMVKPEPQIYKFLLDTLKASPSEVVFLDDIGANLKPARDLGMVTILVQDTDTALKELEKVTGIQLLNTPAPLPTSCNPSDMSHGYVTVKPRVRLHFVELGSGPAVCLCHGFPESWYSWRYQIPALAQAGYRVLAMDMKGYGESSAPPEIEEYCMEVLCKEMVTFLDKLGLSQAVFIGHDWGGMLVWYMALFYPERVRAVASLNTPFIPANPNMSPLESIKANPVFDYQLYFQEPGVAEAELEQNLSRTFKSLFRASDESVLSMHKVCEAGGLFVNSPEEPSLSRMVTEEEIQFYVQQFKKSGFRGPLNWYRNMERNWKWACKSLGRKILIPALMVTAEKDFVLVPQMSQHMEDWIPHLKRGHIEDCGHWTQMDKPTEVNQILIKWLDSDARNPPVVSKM
The test is described as follows: sEH inhibition assay (Epoxy Fluor 7 substrate, fluorescence). The class given is biochemical. Conditions: enzyme 3 nM, 15 min pre-incubation at room temperature, read at 30° C. for 20 minutes, read-out: IC50 against sEH. How it is done:
The sEH inhibition assay was conducted in costar 384 well black NBS plates (Corning). The assay buffer used was 25 mM Tris pH 7.0 and 0.1 mg/ml BSA. The enzyme was purchased from Cayman Chemical (10011669) at a stock concentration of 15.625 μM. The Epoxy Fluor 7 substrate also from Cayman Chemical (10008610) was dissolved in DMSO at a concentration of 25.68 mM. This was further diluted ten-fold in DMSO to a concentration of 2.568 mM. Competition assays were performed with 5 μL Epoxy Fluor 7 diluted from DMSO stock to a final concentration of 5 nM, 5 μL of competitor (final concentration 10 μM-0.5 nM), and 10 μL enzyme (final concentration of 3 nM) in the assay buffer for a total volume of 20 μL. The compound was pre-incubated with enzyme for 15 min at room temperature prior to addition of substrate. The plate was read kinetically at excitation 330 nm and emission 465 nm wavelengths at 30° C. for 20 minutes on the Tecan M1000. The rate was calculated for the linear portion of the curves (2.5-12.5 minutes) and data fit to a sigmoidal curve.

Take `CN(CCn1cccn1)C(=O)c1ccc(-c2cccc(C(=O)NC3CCCCC3)c2)nc1` [Compound 1, N-(2-(1H-pyrazol-1-yl)ethyl)-6-(3-(cyclohexylcarbamoyl)phenyl)-N-methylnicotinamide]: the half-maximal inhibitory concentration (IC50) amounted to 2 nM.
